# Source: US8563542B2 (Cyclacel Limited, priority 2007, dated 2013)
# Target: PLK1 (Homo sapiens, UniProt P53350)
# Assay: PLK1 protein kinase assay (CDC25C phosphorylation, [γ-32P]-ATP)
# Type: biochemical
# Conditions: Table 2, PLK1 IC50; class symbols; read-out: PLK1 IC50
# Chain of PLK1 (P53350 whole entry): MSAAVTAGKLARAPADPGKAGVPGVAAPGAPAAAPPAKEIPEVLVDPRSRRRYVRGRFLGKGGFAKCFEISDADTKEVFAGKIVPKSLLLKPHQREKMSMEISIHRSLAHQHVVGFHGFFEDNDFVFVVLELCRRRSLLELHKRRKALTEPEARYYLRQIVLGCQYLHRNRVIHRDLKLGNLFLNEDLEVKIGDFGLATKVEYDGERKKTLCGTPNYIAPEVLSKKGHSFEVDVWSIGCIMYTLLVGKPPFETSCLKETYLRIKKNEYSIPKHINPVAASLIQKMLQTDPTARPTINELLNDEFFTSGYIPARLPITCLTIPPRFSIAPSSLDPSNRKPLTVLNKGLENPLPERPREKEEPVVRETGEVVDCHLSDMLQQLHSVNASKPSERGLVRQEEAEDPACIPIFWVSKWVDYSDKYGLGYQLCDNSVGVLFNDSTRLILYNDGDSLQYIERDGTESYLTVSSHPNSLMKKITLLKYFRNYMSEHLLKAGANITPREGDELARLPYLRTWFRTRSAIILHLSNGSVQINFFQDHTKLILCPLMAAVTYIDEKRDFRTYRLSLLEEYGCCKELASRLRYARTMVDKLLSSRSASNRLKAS
row,IC50 [nM],Compound
1,< 100,"COc1cc(C(=O)NC(C)(C)CN2CCCCC2)ccc1Nc1ncc2c(n1)N(C1CCCC1)CCC(=O)N2C [compound 156, 4-(9-Cyclopentyl-5-methyl-6-oxo-6,7,8,9-tetrahydro-5H-pyrimido[4,5-b][1,4]diazepin-2-ylamino)-N-(1,1-dimethyl-2-piperidin-1-yl-ethyl)-3-methoxy-benzamide]"
2,< 100,"COc1cc(C(=O)NC2CCN(Cc3ccccc3)CC2)ccc1Nc1ncc2c(n1)N(C1CCCC1)CCC(=O)N2C [compound 157, N-(1-Benzyl-piperidin-4-yl)-4-(9-cyclopentyl-5-methyl-6-oxo-6,7,8,9-tetrahydro-5H-pyrimido[4,5-b][1,4]diazepin-2-ylamino)-3-methoxy-benzamide]"
3,< 100,"COc1cc(C(=O)NCC2CCN(C)CC2)ccc1Nc1ncc2c(n1)N(C1CCCC1)CCC(=O)N2C [compound 158, 4-(9-Cyclopentyl-5-methyl-6-oxo-6,7,8,9-tetrahydro-5H-pyrimido[4,5-b][1,4]diazepin-2-ylamino)-3-methoxy-N-(1-methyl-piperidin-4-ylmethyl)-benzamide]"
4,< 1000,"COc1cc(C(=O)NCCCO)ccc1Nc1ncc2c(n1)N(C1CCCC1)CCC(=O)N2C [compound 159, 4-(9-Cyclopentyl-5-methyl-6-oxo-6,7,8,9-tetrahydro-5H-pyrimido[4,5-b][1,4]diazepin-2-ylamino)-N-(3-hydroxy-propyl)-3-methoxy-benzamide]"
5,< 100,"COc1cc(C(=O)NN2CCN(C)CC2)ccc1Nc1ncc2c(n1)N(C1CCCC1)CCC(=O)N2C [compound 160, 4-(9-Cyclopentyl-5-methyl-6-oxo-6,7,8,9-tetrahydro-5H-pyrimido[4,5-b][1,4]diazepin-2-ylamino)-3-methoxy-N-(4-methyl-piperazin-1-yl)-benzamide]"
6,< 100,"COc1cc(C(=O)NC2CC(C)(C)N(C)C(C)(C)C2)ccc1Nc1ncc2c(n1)N(C1CCCC1)CCC(=O)N2C [compound 162, 4-(9-Cyclopentyl-5-methyl-6-oxo-6,7,8,9-tetrahydro-5H-pyrimido[4,5-b][1,4]diazepin-2-ylamino)-3-methoxy-N-(1,2,2,6,6-pentamethyl-piperidin-4-yl)-benzamide]"
7,< 100,"COc1cc(C(=O)NC2CCCN(C)C2)ccc1Nc1ncc2c(n1)N(C1CCCC1)CCC(=O)N2C (stereo not drawn) [compound 163, 4-(9-Cyclopentyl-5-methyl-6-oxo-6,7,8,9-tetrahydro-5H-pyrimido[4,5-b][1,4]diazepin-2-ylamino)-3-methoxy-N-(1-methyl-piperidin-3-yl)-benzamide]"
8,< 1000,"CCC(O)CNC(=O)c1ccc(Nc2ncc3c(n2)N(C2CCCC2)CCC(=O)N3C)c(OC)c1 (stereo not drawn) [compound 164, 4-(9-Cyclopentyl-5-methyl-6-oxo-6,7,8,9-tetrahydro-5H-pyrimido[4,5-b][1,4]diazepin-2-ylamino)-N-(2-hydroxy-butyl)-3-methoxy-benzamide]"
9,< 100,"COc1cc(C(=O)NCC(C)(C)CN(C)C)ccc1Nc1ncc2c(n1)N(C1CCCC1)CCC(=O)N2C [compound 165, 4-(9-Cyclopentyl-5-methyl-6-oxo-6,7,8,9-tetrahydro-5H-pyrimido[4,5-b][1,4]diazepin-2-ylamino)-N-(3-dimethylamino-2,2-dimethyl-propyl)-3-methoxy-benzamide]"

# Continued, molecule first:
row,Compound,IC50 [nM]
1,"CN1C(=O)CCN(C2CCCC2)c2nc(NCc3ccoc3)ncc21 [compound 107, 9-Cyclopentyl-2-[(furan-3-ylmethyl)-amino]-5-methyl-5,7,8,9-tetrahydro-pyrimido[4,5-b][1,4]diazepin-6-one]",< 10000
2,"COc1cc(C(=O)NC2CCN(C)CC2)ccc1Nc1ncc2c(n1)N(C)CCC(=O)N2C [compound 111, 4-(5,9-Dimethyl-6-oxo-6,7,8,9-tetrahydro-5H-pyrimido[4,5-b][1,4]diazepin-2-ylamino)-3-methoxy-N-(1-methyl-piperidin-4-yl)-benzamide]",< 1000
3,"CNC(=O)c1ccc(Nc2ncc3c(n2)N(C)CCC(=O)N3C)c(OC)c1 [compound 112, 4-(5,9-Dimethyl-6-oxo-6,7,8,9-tetrahydro-5H-pyrimido[4,5-b][1,4]diazepin-2-ylamino)-3-methoxy-N-methyl-benzamide]",< 10000
4,"CNC(=O)c1ccc(Nc2ncc3c(n2)N(C(C)C)CC2(CC2)C(=O)N3C)c(OC)c1 [compound 113, 4-(9-Isopropyl-5-methyl-6-oxo-6,7,8,9-tetrahydro-5H-spiro[pyrimido[4,5-b][1,4]diazepin-3,1′-cyclopropane]-2-ylamino)-3-methoxy-N-methyl-benzamide]",< 1000
5,"CN1C(=O)CCN(C2CCCC2)c2nc(NCc3ccc4c(c3)OCCO4)ncc21 [compound 127, 9-Cyclopentyl-2-[(2,3-dihydro-benzo[1,4]dioxin-6-ylmethyl)-amino]-5-methyl-5,7,8,9-tetrahydro-pyrimido[4,5-b][1,4]diazepin-6-one]",< 10000
6,"CN1C(=O)CCN(C2CCCC2)c2nc(NCc3cc4ccccc4s3)ncc21 [compound 129, 2-[(Benzo[b]thiophen-2-ylmethyl)-amino]-9-cyclopentyl-5-methyl-5,7,8,9-tetrahydro-pyrimido[4,5-b][1,4]diazepin-6-one]",< 10000
7,"Cc1cccc(CNc2ncc3c(n2)N(C2CCCC2)CCC(=O)N3C)c1 [compound 131, 9-Cyclopentyl-5-methyl-2-(3-methyl-benzylamino)-5,7,8,9-tetrahydro-pyrimido[4,5-b][1,4]diazepin-6-one]",< 10000
8,"CNC(=O)c1cccc(Nc2ncc3c(n2)N(C2CCCC2)CCC(=O)N3C)c1C [compound 141, 3-(9-Cyctopentyl-5-methyl-6-oxo-6,7,8,9-tetrahydro-5H-pyrimido[4,5-b][1,4]diazepin-2-ylamino)-2,N-dimethyl-benzamide]",< 10000
9,"Cc1c(Nc2ncc3c(n2)N(C2CCCC2)CCC(=O)N3C)cccc1C(=O)NCCO [compound 142, 3-(9-Cyclopentyl-5-methyl-6-oxo-6,7,8,9-tetrahydro-5H-pyrimido[4,5-b][1,4]diazepin-2-ylamino)-N-(2-hydroxy-ethyl)-2-methyl-benzamide]",< 10000
10,"COc1ccc(C(=O)NC2CCN(C)CC2)cc1Nc1ncc2c(n1)N(C1CCCC1)CCC(=O)N2C [compound 143, 3-(9-Cyclopentyl-5-methyl-6-oxo-6,7,8,9-tetrahydro-5H-pyrimido[4,5-b][1,4]diazepin-2-ylamino)-4-methoxy-N-(1-methyl-piperidin-4-yl)-benzamide]",< 1000
11,"CNC(=O)c1ccc(OC)c(Nc2ncc3c(n2)N(C2CCCC2)CCC(=O)N3C)c1 [compound 144, 3-(9-Cyclopentyl-5-methyl-6-oxo-6,7,8,9-tetrahydro-5H-pyrimido[4,5-b][1,4]diazepin-2-ylamino)-4-methoxy-N-methyl-benzamide]",< 1000
12,"COc1ccc(C(=O)NCCO)cc1Nc1ncc2c(n1)N(C1CCCC1)CCC(=O)N2C [compound 145, 3-(9-Cyclopentyl-5-methyl-6-oxo-6,7,8,9-tetrahydro-5H-pyrimido[4,5-b][1,4]diazepin-2-ylamino)-N-(2-hydroxy-ethyl)-4-methoxy-benzamide]",< 1000
13,"COc1cc(C(=O)N(C)CCCN(C)C)ccc1Nc1ncc2c(n1)N(C1CCCC1)CCC(=O)N2C [compound 147, 4-(9-Cyclopentyl-5-methyl-6-oxo-6,7,8,9-tetrahydro-5H-pyrimido[4,5-b][1,4]diazepin-2-ylamino)-N-(3-dimethylamino-propyl)-3-methoxy-N-methyl-benzamide]",< 1000
14,"CCN(CC)CCNC(=O)c1ccc(Nc2ncc3c(n2)N(C2CCCC2)CCC(=O)N3C)c(OC)c1 [compound 148, 4-(9-Cyclopentyl-5-methyl-6-oxo-6,7,8,9-tetrahydro-5H-pyrimido[4,5-b][1,4]diazepin-2-ylamino)-N-(2-diethylamino-ethyl)-3-methoxy-benzamide]",< 100
15,"COc1cc(C(=O)NCCCN(C)C)ccc1Nc1ncc2c(n1)N(C1CCCC1)CCC(=O)N2C [compound 149, 4-(9-Cyclopentyl-5-methyl-6-oxo-6,7,8,9-tetrahydro-5H-pyrimido[4,5-b][1,4]diazepin-2-ylamino)-N-(3-dimethylamino-propyl)-3-methoxy-benzamide]",< 1000
16,"COc1cc(C(=O)N[C@H]2c3ccccc3C[C@H]2O)ccc1Nc1ncc2c(n1)N(C1CCCC1)CCC(=O)N2C [compound 150, 4-(9-Cyclopentyl-5-methyl-6-oxo-6,7,8,9-tetrahydro-5H-pyrimido[4,5-b][1,4]diazepin-2-ylamino)-N-((1S,2R)-2-hydroxy-indan-1-yl)-3-methoxy-benzamide]",< 1000
17,"COc1cc(C(=O)N[C@@H](CO)C(C)C)ccc1Nc1ncc2c(n1)N(C1CCCC1)CCC(=O)N2C [compound 152, 4-(9-Cyclopentyl-5-methyl-6-oxo-6,7,8,9-tetrahydro-5H-pyrimido[4,5-b][1,4]diazepin-2-ylamino)-N-((R)-1-hydroxymethyl-2-methyl-propyl)-3-methoxy-benzamide]",< 1000
18,"CCC(CO)NC(=O)c1ccc(Nc2ncc3c(n2)N(C2CCCC2)CCC(=O)N3C)c(OC)c1 (stereo not drawn) [compound 153, 4-(9-Cyclopentyl-5-methyl-6-oxo-6,7,8,9-tetrahydro-5H-pyrimido[4,5-b][1,4]diazepin-2-ylamino)-N-(1-hydroxymethyl-propyl)-3-methoxy-benzamide]",< 1000
19,"COc1cc(C(=O)NCC(C)O)ccc1Nc1ncc2c(n1)N(C1CCCC1)CCC(=O)N2C (stereo not drawn) [compound 154, 4-(9-Cyclopentyl-5-methyl-6-oxo-6,7,8,9-tetrahydro-5H-pyrimido[4,5-b][1,4]diazepin-2-ylamino)-N-(2-hydroxy-propyl)-3-methoxy-benzamide]",< 1000
20,"COc1cc(C(=O)NC(C)(C)CN2CCCC2)ccc1Nc1ncc2c(n1)N(C1CCCC1)CCC(=O)N2C [compound 155, 4-(9-Cyclopentyl-5-methyl-6-oxo-6,7,8,9-tetrahydro-5H-pyrimido[4,5-b][1,4]diazepin-2-ylamino)-N-(1,1-dimethyl-2-pyrrolidin-1-yl-ethyl)-3-methoxy-benzamide]",< 1000
21,"COc1cc(C(=O)NC2CN3CCC2CC3)ccc1Nc1ncc2c(n1)N(C1CCCC1)CCC(=O)N2C (stereo not drawn) [compound 161, N-(1-Aza-bicyclo[2.2.2]oct-3-yl)-4-(9-cyclopentyl-5-methyl-6-oxo-6,7,8,9-tetrahydro-5H-pyrimido[4,5-b][1,4]diazepin-2-ylamino)-3-methoxy-benzamide]",< 100
